Columns and labels:
[1] = tested on: Female NOD mice; assay: Prevention of the progressive development of IDDM in the NOD mouse (incidence of diabetes by urine glucose and plasma glucose); type: in vivo
Text: The non-obese diabetic (NOD) mouse has a genetic predisposition to developing IDDM, particularly among the females. Diabetes begins to appear at 12-14 weeks of age and by 30-36 weeks of age about 75-85% of female NOD's will have developed IDDM. As such, the NOD mouse provides a standard experimental model for IDDM in man which is well known and appreciated by those skilled in the art [see Lampeter, et al: Diabetologia 32, 703 (1989)]. The effect of experimental agents on the NOD mouse can thus be studied to determine whether these agents are active in inhibiting the development of diabetes.
Female NOD mice were maintained on standard laboratory rodent feed containing either 0% (Control Group) or 1% bis(3,5-di-tertiary-butyl-4-hydroxyphenylthio)methane (Treated Group) as an admixture. The mice were started on these diets at 4 weeks of age and continued until they were 24 weeks old. Each mouse was tested for diabetes at 8, 12, 14, 16, 18, 20, 22 and 24 weeks of age. Diabetic mice were detected by a positive urine glucose measurement and were confirmed by a plasma glucose level greater than 300 mg/dL. Urine glucose was determined using Diastix™ reagent strips for urinalysis (Miles Inc., Diagnostics Division, Elkhart, IN) and plasma glucose using Glucose (GDH Endpoint) Reagent™ (Seradyn, Inc., Indianapolis, IN).
Mice were counted as diabetic if a positive urine glucose and plasma glucose greater than 300 mg/dL were determined on 3 consecutive measurements. If mice were determined to be diabetic for 1 or 2 consecutive measurements and then died with physical indications of IDDM such as severe weight loss, these mice were also counted as diabetic.
At 24 weeks of age, 30 of 61 mice in the Control Group (49%) had become diabetic compared to 2 of 51 mice in the Treated Group (4%).
The treated, nondiabetic mice (N=38) not sacrificed at 24 weeks of age were switched to control diet and monitored, along with the 21 remaining controls, for 24 more weeks. During this period, 13 of 21 (62%) controls and 13 of 38 (34%) previously treated mice developed diabetes (p=0.04). Combining the two 24 week study periods, the percentage of mice that developed diabetes among the controls was 81% (51% of the controls were nondiabetic after 24 weeks of study and 38% of these were still nondiabetic after 24 more weeks for an overall total of 19% nondiabetic control animals). Among the group treated for 24 weeks the percentage of mice that developed diabetes after 48 weeks of study was 37% (96% were nondiabetic after 24 weeks and 66% of these were still nondiabetic 24 weeks after stopping treatment).

[2] = tested on: Female NOD mice; assay: Pancreatic histopathology of NOD mice at 24 weeks of age (hematoxylin and eosin, immunoperoxidase for insulin); type: in vivo, NOD mouse; details: 1% in feed
Text: At 24 weeks of age, randomly selected control (N=10) and treated (N=10) nondiabetic mice and all surviving diabetic control (N=15) and treated (N=1) mice were sacrificed. Pancreata were collected and stored in formalin, processed, embedded, and sectioned by standard histological methods. Sections stained with hemotoxylin and eosin or by immunoperoxidase for insulin (as a marker for the presence of β-cells) were examined light microscopically. […]

[3] = Clinical Status Diabetic, 1 mouse
[4] = Clinical Status Nondiabetic, 10 mice

## CC(C)(C)c1cc(SCSc2cc(C(C)(C)C)c(O)c(C(C)(C)C)c2)cc(C(C)(C)C)c1O [Bis(3,5-di-tertiary-butyl-4-hydroxyphenylthio)methane]
[1]; after 48 weeks of study, group treated for 24 weeks, two 24 week periods combined, controls 81%
  percentage of mice that developed diabetes: 37%
[1]; at 24 weeks of age / after 24 weeks of study, 1% in feed, controls 51%
  treated mice nondiabetic: 96%
[1]; at 24 weeks of age, 1% in feed as an admixture from 4 to 24 weeks of age, Control Group 30 of 61
  mice that had become diabetic: 2 of 51
[1]; at 24 weeks of age, 1% in feed from 4 to 24 weeks of age, Control Group 49%
  mice that had become diabetic (percentage): 4%
[1]; of the mice nondiabetic after 24 weeks of treatment, controls 38%
  still nondiabetic 24 weeks after stopping treatment: 66%
[1]; treated nondiabetic mice switched to control diet at 24 weeks of age, monitored 24 more weeks, controls 13 of 21, p=0.04
  previously treated mice that developed diabetes: 13 of 38
[1]; treated nondiabetic mice switched to control diet at 24 weeks of age, monitored 24 more weeks, controls 62%, p=0.04
  previously treated mice that developed diabetes (percentage): 34%
[2]; [3]
  Atrophy: 1 number of mice
  Insulitis: 1 number of mice
  β-Cells Present: 1 number of mice
[2]; [4]
  Atrophy: 2 number of mice
  Insulitis: 9 number of mice
